Columns and labels:
Test in all cases: KINOMEscan competition binding
Details in all cases: compound 10.0 µM
[1] = system: RET (human), P07949 [V804M]
[2] = system: RET (human), P07949 [V804L]
[3] = system: PIK3CA (human), P42336 [E545K]
[4] = molecular target: FGFR1 (human) (UniProt P11362)
[5] = molecular target: RPS6KA1 KD1 (human) (UniProt Q15418)
[6] = system: ABL1 (human), P00519 [Y253F]
[7] = molecular target: CDK11A (human) (UniProt Q9UQ88)
[8] = molecular target: CAMK2D (human) (UniProt Q13557)
[9] = molecular target: MAPK9 (human) (UniProt P45984)
MAPK9 (human), sequence (P45984 whole entry, looked up): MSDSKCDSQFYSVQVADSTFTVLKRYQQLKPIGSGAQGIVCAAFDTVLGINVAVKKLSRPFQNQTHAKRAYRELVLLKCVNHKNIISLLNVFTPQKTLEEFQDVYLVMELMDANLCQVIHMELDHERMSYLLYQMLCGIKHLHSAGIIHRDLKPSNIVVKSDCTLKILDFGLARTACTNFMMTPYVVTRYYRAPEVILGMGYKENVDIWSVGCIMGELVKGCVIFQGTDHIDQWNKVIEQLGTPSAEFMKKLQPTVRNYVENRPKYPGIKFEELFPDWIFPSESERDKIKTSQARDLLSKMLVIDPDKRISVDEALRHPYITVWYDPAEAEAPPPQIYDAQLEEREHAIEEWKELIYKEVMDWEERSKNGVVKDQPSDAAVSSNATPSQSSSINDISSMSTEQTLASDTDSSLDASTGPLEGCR

[10] = molecular target: CSK (human) (UniProt P41240)
[11] = molecular target: MAPKAPK5 (human) (UniProt Q8IW41)
[12] = molecular target: AXL (human) (UniProt P30530)
[13] = molecular target: PDGFRA (human) (UniProt P16234)
[14] = molecular target: MAPKAPK2 (human) (UniProt P49137)
[15] = molecular target: MAP3K9 (human) (UniProt P80192)
[16] = molecular target: PLK1 (human) (UniProt P53350)
[17] = molecular target: PRKX (human) (UniProt P51817)
[18] = molecular target: EPHB4 (human) (UniProt P54760)
[19] = molecular target: TNNI3K (human) (UniProt Q59H18)
[20] = system: ABL1 (human), P00519 [M351T]
[21] = molecular target: PRKCE (human) (UniProt Q02156)
[22] = molecular target: CDK8 (human) (UniProt P49336)
[23] = molecular target: FER (human) (UniProt P16591)
FER (human), sequence (P16591 whole entry, looked up): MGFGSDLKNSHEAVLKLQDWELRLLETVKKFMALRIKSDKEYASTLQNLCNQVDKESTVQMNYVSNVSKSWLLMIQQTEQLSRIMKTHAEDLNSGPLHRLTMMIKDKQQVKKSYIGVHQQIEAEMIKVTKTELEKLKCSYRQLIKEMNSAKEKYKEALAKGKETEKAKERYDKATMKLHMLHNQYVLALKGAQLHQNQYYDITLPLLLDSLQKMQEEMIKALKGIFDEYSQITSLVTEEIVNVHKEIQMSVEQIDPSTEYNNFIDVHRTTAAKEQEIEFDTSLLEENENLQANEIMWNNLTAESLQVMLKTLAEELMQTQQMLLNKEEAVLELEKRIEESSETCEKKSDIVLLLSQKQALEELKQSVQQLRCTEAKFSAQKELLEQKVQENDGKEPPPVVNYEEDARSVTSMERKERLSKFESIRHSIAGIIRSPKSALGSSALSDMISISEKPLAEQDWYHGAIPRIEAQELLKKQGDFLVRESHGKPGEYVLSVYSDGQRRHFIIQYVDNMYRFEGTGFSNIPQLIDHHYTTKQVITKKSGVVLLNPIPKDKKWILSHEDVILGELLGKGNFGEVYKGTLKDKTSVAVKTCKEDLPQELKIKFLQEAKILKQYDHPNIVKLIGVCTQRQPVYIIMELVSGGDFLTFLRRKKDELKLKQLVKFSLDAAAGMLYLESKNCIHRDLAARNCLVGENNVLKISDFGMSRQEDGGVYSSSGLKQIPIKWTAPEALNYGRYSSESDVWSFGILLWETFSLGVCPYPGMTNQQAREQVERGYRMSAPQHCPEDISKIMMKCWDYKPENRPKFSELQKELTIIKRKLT

[24] = molecular target: CDC42BPA (human) (UniProt Q5VT25)
[25] = molecular target: MAP2K2 (human) (UniProt P36507)
MAP2K2 (human), sequence (P36507 whole entry, looked up): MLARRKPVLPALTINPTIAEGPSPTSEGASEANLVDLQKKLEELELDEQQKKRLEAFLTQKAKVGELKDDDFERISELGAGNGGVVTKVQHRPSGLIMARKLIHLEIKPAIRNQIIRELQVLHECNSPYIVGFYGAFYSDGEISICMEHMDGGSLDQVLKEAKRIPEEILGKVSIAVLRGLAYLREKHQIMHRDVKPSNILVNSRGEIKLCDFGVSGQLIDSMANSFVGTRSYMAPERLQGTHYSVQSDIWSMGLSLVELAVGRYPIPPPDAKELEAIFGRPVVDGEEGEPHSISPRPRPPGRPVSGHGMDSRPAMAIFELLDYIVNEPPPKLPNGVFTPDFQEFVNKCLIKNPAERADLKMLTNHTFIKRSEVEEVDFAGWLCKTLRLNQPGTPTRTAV

[26] = molecular target: RPS6KA3 KD1 (human) (UniProt P51812)
[27] = molecular target: SLK (human) (UniProt Q9H2G2)
[28] = molecular target: BLK (human) (UniProt P51451)
[29] = molecular target: ZAP70 (human) (UniProt P43403)
ZAP70 (human), sequence (P43403 whole entry, looked up): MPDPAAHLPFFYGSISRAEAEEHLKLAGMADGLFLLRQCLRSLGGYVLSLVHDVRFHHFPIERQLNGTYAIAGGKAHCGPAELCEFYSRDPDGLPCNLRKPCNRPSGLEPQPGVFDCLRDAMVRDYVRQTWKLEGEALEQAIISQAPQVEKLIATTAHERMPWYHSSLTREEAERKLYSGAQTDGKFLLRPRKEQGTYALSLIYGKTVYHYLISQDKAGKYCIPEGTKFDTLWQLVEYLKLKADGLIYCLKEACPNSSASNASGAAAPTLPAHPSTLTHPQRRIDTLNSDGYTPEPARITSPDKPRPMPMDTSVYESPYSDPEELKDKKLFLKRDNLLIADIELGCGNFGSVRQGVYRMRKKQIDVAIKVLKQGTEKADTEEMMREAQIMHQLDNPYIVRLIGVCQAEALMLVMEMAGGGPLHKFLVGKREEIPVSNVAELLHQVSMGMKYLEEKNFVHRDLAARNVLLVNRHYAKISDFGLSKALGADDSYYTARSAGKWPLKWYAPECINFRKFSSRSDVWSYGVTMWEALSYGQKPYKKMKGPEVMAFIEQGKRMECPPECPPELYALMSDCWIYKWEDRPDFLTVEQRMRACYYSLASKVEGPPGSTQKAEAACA

[30] = molecular target: ACVR1B (human) (UniProt P36896)
[31] = molecular target: FYN (human) (UniProt P06241)
[32] = molecular target: MARK2 (human) (UniProt Q7KZI7)
[33] = molecular target: CDK9 (human) (UniProt P50750)
CDK9 (human), sequence (P50750 whole entry, looked up): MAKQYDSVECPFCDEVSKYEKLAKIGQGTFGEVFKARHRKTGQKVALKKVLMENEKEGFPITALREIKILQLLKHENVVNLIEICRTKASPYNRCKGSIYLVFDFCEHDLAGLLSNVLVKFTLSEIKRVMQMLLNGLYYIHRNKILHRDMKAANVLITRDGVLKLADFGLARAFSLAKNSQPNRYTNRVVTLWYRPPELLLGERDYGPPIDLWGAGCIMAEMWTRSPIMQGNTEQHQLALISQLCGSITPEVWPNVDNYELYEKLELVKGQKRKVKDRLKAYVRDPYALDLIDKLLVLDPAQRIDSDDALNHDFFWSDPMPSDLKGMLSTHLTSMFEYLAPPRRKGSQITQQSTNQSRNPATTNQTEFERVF

[34] = molecular target: ADCK4 (human) (UniProt Q96D53)
[35] = molecular target: PRKAA1 (human) (UniProt Q13131)
[36] = molecular target: PIK3C2B (human) (UniProt O00750)
[37] = molecular target: CAMK1 (human) (UniProt Q14012)
[38] = molecular target: LATS2 (human) (UniProt Q9NRM7)
[39] = molecular target: MAPK11 (human) (UniProt Q15759)
MAPK11 (human), sequence (Q15759 whole entry, looked up): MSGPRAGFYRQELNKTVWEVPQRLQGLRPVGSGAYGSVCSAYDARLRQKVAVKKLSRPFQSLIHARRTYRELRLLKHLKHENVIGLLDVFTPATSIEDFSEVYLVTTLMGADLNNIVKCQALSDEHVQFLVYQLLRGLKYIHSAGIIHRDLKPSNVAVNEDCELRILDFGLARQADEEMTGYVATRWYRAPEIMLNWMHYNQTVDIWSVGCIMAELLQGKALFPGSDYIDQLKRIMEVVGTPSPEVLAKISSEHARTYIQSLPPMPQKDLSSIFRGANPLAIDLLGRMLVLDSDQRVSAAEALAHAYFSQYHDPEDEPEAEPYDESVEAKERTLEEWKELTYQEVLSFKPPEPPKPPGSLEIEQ

[40] = molecular target: PDPK1 (human) (UniProt O15530)
[41] = molecular target: EPHA4 (human) (UniProt P54764)
[42] = molecular target: WEE1 (human) (UniProt P30291)

RPS6KA1 KD1 (human), sequence (Q15418 whole entry, looked up): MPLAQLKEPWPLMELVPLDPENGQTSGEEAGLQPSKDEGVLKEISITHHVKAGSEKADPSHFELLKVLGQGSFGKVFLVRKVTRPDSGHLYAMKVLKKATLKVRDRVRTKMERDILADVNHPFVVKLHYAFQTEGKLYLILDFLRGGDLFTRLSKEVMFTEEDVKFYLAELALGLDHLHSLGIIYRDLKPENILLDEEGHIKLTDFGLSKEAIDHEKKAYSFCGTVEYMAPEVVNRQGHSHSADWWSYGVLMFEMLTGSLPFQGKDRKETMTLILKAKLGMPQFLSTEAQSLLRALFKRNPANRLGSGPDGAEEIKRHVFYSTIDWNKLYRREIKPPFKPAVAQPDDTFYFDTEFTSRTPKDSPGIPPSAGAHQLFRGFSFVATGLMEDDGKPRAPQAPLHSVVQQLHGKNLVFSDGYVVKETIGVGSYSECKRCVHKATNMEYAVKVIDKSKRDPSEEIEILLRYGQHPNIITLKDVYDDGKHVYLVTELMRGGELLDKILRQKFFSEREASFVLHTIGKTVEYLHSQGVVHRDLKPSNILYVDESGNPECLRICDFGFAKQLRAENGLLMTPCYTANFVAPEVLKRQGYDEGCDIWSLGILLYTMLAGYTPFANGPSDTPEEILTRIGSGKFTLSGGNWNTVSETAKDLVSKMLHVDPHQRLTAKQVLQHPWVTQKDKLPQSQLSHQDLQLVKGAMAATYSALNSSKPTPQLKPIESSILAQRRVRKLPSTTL
PIK3CA (human), P42336 [E545K], sequence (P42336 whole entry E545K, looked up): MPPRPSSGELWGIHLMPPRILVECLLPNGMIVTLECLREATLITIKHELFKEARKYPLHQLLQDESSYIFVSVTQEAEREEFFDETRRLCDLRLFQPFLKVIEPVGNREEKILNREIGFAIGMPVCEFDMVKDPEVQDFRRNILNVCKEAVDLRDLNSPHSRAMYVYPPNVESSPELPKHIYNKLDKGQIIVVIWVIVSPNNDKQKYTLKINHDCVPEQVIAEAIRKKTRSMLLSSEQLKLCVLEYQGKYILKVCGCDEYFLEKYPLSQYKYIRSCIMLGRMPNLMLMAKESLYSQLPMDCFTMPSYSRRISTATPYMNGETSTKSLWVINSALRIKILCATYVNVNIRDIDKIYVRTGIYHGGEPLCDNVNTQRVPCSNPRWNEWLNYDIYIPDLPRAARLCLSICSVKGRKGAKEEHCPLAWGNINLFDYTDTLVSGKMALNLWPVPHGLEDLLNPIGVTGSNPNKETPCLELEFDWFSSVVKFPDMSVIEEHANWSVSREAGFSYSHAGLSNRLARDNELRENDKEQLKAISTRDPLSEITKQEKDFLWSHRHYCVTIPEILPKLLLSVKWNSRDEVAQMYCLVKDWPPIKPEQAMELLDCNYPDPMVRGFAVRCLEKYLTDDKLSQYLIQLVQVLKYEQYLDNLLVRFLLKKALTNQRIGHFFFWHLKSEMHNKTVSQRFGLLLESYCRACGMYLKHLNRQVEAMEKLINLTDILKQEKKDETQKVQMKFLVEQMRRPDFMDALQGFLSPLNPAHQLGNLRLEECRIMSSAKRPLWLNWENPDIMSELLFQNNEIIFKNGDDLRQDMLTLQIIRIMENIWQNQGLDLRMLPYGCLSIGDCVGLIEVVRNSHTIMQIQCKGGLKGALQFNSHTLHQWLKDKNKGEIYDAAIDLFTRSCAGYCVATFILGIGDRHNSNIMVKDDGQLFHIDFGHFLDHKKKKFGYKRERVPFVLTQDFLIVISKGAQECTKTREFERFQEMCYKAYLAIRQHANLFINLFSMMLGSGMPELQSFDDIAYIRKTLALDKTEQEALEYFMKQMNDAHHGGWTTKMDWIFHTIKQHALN

COc1cc(N2CCN(C)CC2)ccc1Nc1ncc2c(n1)Nc1ccccc1NC2=O
kinase still bound, per cent of control [1]: 100% | kinase still bound, per cent of control [2]: 80% | kinase still bound, per cent of control [3]: 100% | kinase still bound, per cent of control [4]: 80% | kinase still bound, per cent of control [5]: 96% | kinase still bound, per cent of control [6]: 26% | kinase still bound, per cent of control [7]: 82% | kinase still bound, per cent of control [8]: 92% | kinase still bound, per cent of control [9]: 69% | kinase still bound, per cent of control [10]: 100% | kinase still bound, per cent of control [11]: 100% | kinase still bound, per cent of control [12]: 83% | kinase still bound, per cent of control [13]: 91% | kinase still bound, per cent of control [14]: 96% | kinase still bound, per cent of control [15]: 82% | kinase still bound, per cent of control [16]: 99% | kinase still bound, per cent of control [17]: 100% | kinase still bound, per cent of control [18]: 100% | kinase still bound, per cent of control [19]: 87% | kinase still bound, per cent of control [20]: 15% | kinase still bound, per cent of control [21]: 93% | kinase still bound, per cent of control [22]: 55% | kinase still bound, per cent of control [23]: 100% | kinase still bound, per cent of control [24]: 100% | kinase still bound, per cent of control [25]: 95% | kinase still bound, per cent of control [26]: 72% | kinase still bound, per cent of control [27]: 100% | kinase still bound, per cent of control [28]: 49% | kinase still bound, per cent of control [29]: 100% | kinase still bound, per cent of control [30]: 100% | kinase still bound, per cent of control [31]: 98% | kinase still bound, per cent of control [32]: 100% | kinase still bound, per cent of control [33]: 100% | kinase still bound, per cent of control [34]: 84% | kinase still bound, per cent of control [35]: 87% | kinase still bound, per cent of control [36]: 100% | kinase still bound, per cent of control [37]: 100% | kinase still bound, per cent of control [38]: 89% | kinase still bound, per cent of control [39]: 100% | kinase still bound, per cent of control [40]: 82% | kinase still bound, per cent of control [41]: 100% | kinase still bound, per cent of control [42]: 86%

COc1cc(N2CCN(C)CC2)ccc1Nc1ncc2c(n1)N(C)c1sccc1C(=O)N2C
kinase still bound, per cent of control [1]: 88% | kinase still bound, per cent of control [2]: 89% | kinase still bound, per cent of control [3]: 74% | kinase still bound, per cent of control [4]: 100% | kinase still bound, per cent of control [5]: 92% | kinase still bound, per cent of control [6]: 99% | kinase still bound, per cent of control [7]: 95% | kinase still bound, per cent of control [8]: 59% | kinase still bound, per cent of control [9]: 82% | kinase still bound, per cent of control [10]: 88% | kinase still bound, per cent of control [11]: 69% | kinase still bound, per cent of control [12]: 75% | kinase still bound, per cent of control [13]: 87% | kinase still bound, per cent of control [14]: 89% | kinase still bound, per cent of control [15]: 100% | kinase still bound, per cent of control [16]: 2.5% | kinase still bound, per cent of control [17]: 82% | kinase still bound, per cent of control [18]: 100% | kinase still bound, per cent of control [19]: 84% | kinase still bound, per cent of control [20]: 82% | kinase still bound, per cent of control [21]: 97% | kinase still bound, per cent of control [22]: 100% | kinase still bound, per cent of control [23]: 36% | kinase still bound, per cent of control [24]: 98% | kinase still bound, per cent of control [25]: 77% | kinase still bound, per cent of control [26]: 99% | kinase still bound, per cent of control [27]: 87% | kinase still bound, per cent of control [28]: 100% | kinase still bound, per cent of control [29]: 74% | kinase still bound, per cent of control [30]: 86% | kinase still bound, per cent of control [31]: 86% | kinase still bound, per cent of control [32]: 100% | kinase still bound, per cent of control [33]: 76% | kinase still bound, per cent of control [34]: 78% | kinase still bound, per cent of control [35]: 99% | kinase still bound, per cent of control [36]: 85% | kinase still bound, per cent of control [37]: 71% | kinase still bound, per cent of control [38]: 100% | kinase still bound, per cent of control [39]: 85% | kinase still bound, per cent of control [40]: 93% | kinase still bound, per cent of control [41]: 100% | kinase still bound, per cent of control [42]: 100%

Source: the kinase profiling compilation of Christmann-Franck et al. (2016)
